Experimental data as given in US8029764B2, “Methods for detection of colorectal cancer” (The Johns Hopkins University, priority 2001, dated 2011).

Test system: colorectal tissue transcripts
Test: SAGE of normal, adenoma and cancer colorectal tissue (transcript tag counts)
Set-up: species or system human
Outline: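 Tag counts reflect transcript abundance, each mRNA represented by a 15-base tag near its 3′ end. Excluding MHC tags, linkers and duplicate ditags, libraries were compared statistically: two each of normal epithelium, FAP-derived adenomas (>70% neoplastic) and carcinomas.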

[1] = normal colorectal tissue library 1
[2] = normal colorectal tissue library 2

| Sequence | AD1 (SAGE tag count) (SAGE library AD1) | AD2 (SAGE tag count) (SAGE library AD2) | CA1 (SAGE tag count) (SAGE library CA1) | CA2 (SAGE tag count) (SAGE library CA2) | NC1 (SAGE tag count) (SAGE library NC1) | NC2 (SAGE tag count) (SAGE library NC2) | AD1 (SAGE tag count) (adenoma library 1) | AD2 (SAGE tag count) (adenoma library 2) | CA1 (SAGE tag count) (cancer library 1) | CA2 (SAGE tag count) (cancer library 2) | NC1 (SAGE tag count) [1] | NC2 (SAGE tag count) [2] | NC2 (SAGE tag count) (SAGE library NC2, major histocompatibility complex, class I, A) | NC2 (SAGE tag count) (SAGE library NC2, major histocompatibility complex, class I, C) |
| --- | --- | --- | --- | --- | --- | --- | --- | --- | --- | --- | --- | --- | --- | --- |
| GCCCAGTGGC (chemistry not fully specified) | 8 | 15 | 2 | 5 | 51 | 0 |  |  |  |  |  |  |  |  |
| CCAACACCAG (chemistry not fully specified) | 1 | 0 | 0 | 1 | 9 | 19 |  |  |  |  |  |  |  |  |
| GCGAAACCCT (chemistry not fully specified) | 123 | 43 | 64 | 98 | 167 | 565 |  |  |  |  |  |  |  |  |
| CGGGAGTCGG (chemistry not fully specified) | 13 | 2 | 9 | 1 | 28 | 30 |  |  |  |  |  |  |  |  |
| CCTCCAGTAC (chemistry not fully specified) | 2 | 3 | 2 | 4 | 20 | 8 |  |  |  |  |  |  |  |  |
| TTCCGCGTTC (chemistry not fully specified) |  |  |  |  |  |  | 0 | 0 | 2 | 2 | 5 | 16 |  |  |
| CTGGCTATCC (chemistry not fully specified) | 0 | 0 | 0 | 1 | 7 | 3 |  |  |  |  |  |  |  |  |
| CGGACTCACT (chemistry not fully specified) | 5 | 14 | 14 | 10 | 20 | 45 |  |  |  |  |  |  |  |  |
| GCCAGGTTGC (chemistry not fully specified) | 1 | 1 | 1 | 1 | 14 | 5 |  |  |  |  |  |  |  |  |
| GACGCGGCGC (chemistry not fully specified) | 10 | 17 | 12 | 17 | 30 | 47 |  |  |  |  |  |  |  |  |
| CCCTCCCGAA (chemistry not fully specified) | 9 | 14 | 18 | 7 | 89 | 54 |  |  |  |  |  |  |  |  |
| TGGCTACTTA (chemistry not fully specified) |  |  |  |  |  |  | 1 | 0 | 1 | 2 | 6 | 9 |  |  |
| AATAAAGGCT (chemistry not fully specified) | 3 | 7 | 3 | 4 | 25 | 11 |  |  |  |  |  |  |  |  |
| GCCTGGCCAT (chemistry not fully specified) | 4 | 6 | 10 | 14 | 26 | 34 |  |  |  |  |  |  |  |  |
| GCCGTGGAGA (chemistry not fully specified) | 4 | 11 | 7 | 7 | 32 | 23 |  |  |  |  |  |  |  |  |
| GCGAAACTCG (chemistry not fully specified) | 1 | 0 | 0 | 0 | 5 | 9 |  |  |  |  |  |  |  |  |
| TTTTCTGCAT (chemistry not fully specified) |  |  |  |  |  |  | 1 | 0 | 1 | 2 | 8 | 7 |  |  |
| CAAGAGTTTC (chemistry not fully specified) | 0 | 0 | 0 | 0 | 14 | 2 |  |  |  |  |  |  |  |  |
| CCCAACGCGC (chemistry not fully specified) | 3 | 5 | 0 | 2 | 106 | 1 |  |  |  |  |  |  |  |  |

| Sequence | AD1 (SAGE tag count) (SAGE library AD1) | AD2 (SAGE tag count) (SAGE library AD2) | CA1 (SAGE tag count) (SAGE library CA1) | CA2 (SAGE tag count) (SAGE library CA2) | NC1 (SAGE tag count) (SAGE library NC1) | NC2 (SAGE tag count) (SAGE library NC2) | AD1 (SAGE tag count) (adenoma library 1) | AD2 (SAGE tag count) (adenoma library 2) | CA1 (SAGE tag count) (cancer library 1) | CA2 (SAGE tag count) (cancer library 2) | NC1 (SAGE tag count) [1] | NC2 (SAGE tag count) [2] | NC2 (SAGE tag count) (SAGE library NC2, major histocompatibility complex, class I, A) | NC2 (SAGE tag count) (SAGE library NC2, major histocompatibility complex, class I, C) |
| --- | --- | --- | --- | --- | --- | --- | --- | --- | --- | --- | --- | --- | --- | --- |
| AGGTGACTGG (chemistry not fully specified) | 0 | 0 | 0 | 0 | 10 | 14 |  |  |  |  |  |  |  |  |
| GCTGCCCTTG (chemistry not fully specified) | 13 | 6 | 6 | 18 | 44 | 6 |  |  |  |  |  |  |  |  |
| GACCAGTGGC (chemistry not fully specified) | 4 | 0 | 2 | 0 | 21 | 44 |  |  |  |  |  |  |  |  |
| GCCGGGTGGG (chemistry not fully specified) | 18 | 24 | 68 | 67 | 207 | 149 |  |  |  |  |  |  |  |  |
| CCATTCCACT (chemistry not fully specified) | 2 | 0 | 0 | 0 | 13 | 1 |  |  |  |  |  |  |  |  |
| AATAGTTTCC (chemistry not fully specified) | 2 | 3 | 6 | 1 | 7 | 16 |  |  |  |  |  |  |  |  |
| GCTGTGCCTG (chemistry not fully specified) | 2 | 4 | 11 | 8 | 36 | 42 |  |  |  |  |  |  |  |  |
| CCGCTGCACT (chemistry not fully specified) | 55 | 46 | 37 | 30 | 127 | 102 |  |  |  |  |  |  |  |  |
| GTGCACTGAG (chemistry not fully specified) | 14 | 7 | 12 | 13 | 118 |  |  |  |  |  |  |  | 48 | 45 |
| TAAGGCCTTT (chemistry not fully specified; the letters are possibly those of the target site) |  |  |  |  |  |  | 1 | 0 | 0 | 1 | 6 | 9 |  |  |
| GGAACAGGGG (chemistry not fully specified) | 1 | 0 | 0 | 2 | 1 | 13 |  |  |  |  |  |  |  |  |
| CCTGTGACAG (chemistry not fully specified) | 0 | 4 | 3 | 1 | 22 | 27 |  |  |  |  |  |  |  |  |
| GGAGGCCGAG (chemistry not fully specified) | 5 | 0 | 2 | 5 | 13 | 9 |  |  |  |  |  |  |  |  |
| AATCACAAAT (chemistry not fully specified) | 1 | 4 | 14 | 3 | 18 | 45 |  |  |  |  |  |  |  |  |
| GCTGGCCCCG (chemistry not fully specified) | 0 | 0 | 0 | 1 | 5 | 11 |  |  |  |  |  |  |  |  |
| GTGGTGGCAG (chemistry not fully specified; the letters are possibly those of the target site) | 1 | 1 | 10 | 3 | 29 | 11 |  |  |  |  |  |  |  |  |
| GCCATCCTCC (chemistry not fully specified) | 0 | 1 | 0 | 0 | 9 | 13 |  |  |  |  |  |  |  |  |
| GTGGTTCACG (chemistry not fully specified) | 0 | 0 | 0 | 0 | 4 | 5 | 0 | 0 | 0 | 0 | 4 | 5 |  |  |
